{"source": "patent EP0245669B1", "about": "“Pharmaceutical preparation for preventing damage to living cells by free radicals, or for increasing the efficacy of organic sulphur compounds, and process for increasing the life span of isolated organs” (Medopharm Arzneimittelwerk Dr. Zillich GmbH & Co., priority 1986, dated 1987)", "system": "weiblichen C3H Mäusen", "assay": "Radiation protection: survival of mice after gamma irradiation (cobalt-60) following i.p. pretreatment", "format": "in vivo, Mäuse", "details": "for Ueberlebensrate nach Bestrahlung mit 9 Gy / überlebten eine Bestrahlung mit 9 Gy: 10 min before 9 Gy; for Ueberlebensrate nach Bestrahlung mit 9 Gy / Ueberlebensrate nach Bestrahlung mit 11 Gy / Ueberlebensrate nach Bestrahlung mit 13 Gy / Ueberlebensrate nach Bestrahlung mit 12 Gy / Ueberlebensrate nach Bestrahlung mit 14 Gy / Ueberlebensrate nach Bestrahlung mit 10 Gy: surviving after 30 days/irradiated mice; for Ueberlebensrate in %: AET alone in optimal dosage, 30 days after irradiation; for Ueberlebensrate nach Bestrahlung mit 10 Gy / überlebten eine Bestrahlung mit 10 Gy: 10 min before 10 Gy", "excerpt": "In den nachfolgenden Beispielen wurde die synergistische Wirkung der durch die erfindungsgemässe Verwendung hergestellten pharmazeutischen Präparate mit organische Schwefelverbindungen enthaltenden Präparaten anhand des Strahlenschutzes getestet und es wurde auch die Strahlenschutzwirkung der Zinkionen enthaltenden Präparate mit bisher bekannten Strahlenschutzpräparaten an Mäusen getestet. Die Versuche wurden mit weiblichen C3H Mäusen (GL. Bomholtgard, Ry, Dänemark) durchgeführt, die 20 bis 22 g wogen. Die Mäuse wurden unter Bedingungen gehalten, wo sie so viel Standard-Nagetierfutter (Nafag Pellts) fressen und so viel Leitungswasser trinken können, wie sie wollten. Die Bestrahlung erfolgte mit Gammastrahlen aus einer Kobalt-60 Quelle. Es wurden unterschiedliche Bestrahlungen vorgenommen, und zwar mit 9 Gy, 10 Gy, 11 Gy, 12 Gy, 13 Gy und 14 Gy.\n10 Minuten vor der Bestrahlung, 30 Minuten vor der Bestrahlung oder 120 Minuten vor der Bestrahlung wurde ein durch die erfindungsgemässe Verwendung hergestelltes synergistisch wirkendes pharmazeutisches Präparat, bzw. ein entsprechendes, Zinkionen enthaltendes Strahlenschutzpräparat oder ein aus dem Stand der Technik bekanntes Strahlenschutzpräparat zu Vergleichszwecken durch intraperitoneale Injektion verabreicht.\nBei der Gruppe der Mäuse zu Vergleichszwecken, die ohne Verabreichung eines Strahlenschutzpräparates bestrahlt wurden, erfolgte 10 Minuten vor der Bestrahlung die Verabreichung von destilliertem Wasser. Bei diesen unbehandelten Mäusen überlebten nur 50% der Tiere eine Bestrahlung von 8 Gy, d.h. der LD₅₀-Wert betrug 8 Gy.\nNach den Arbeitsweisen der vorangegangenen Beispiele 1 bis 4, wurden weitere Tests mit den genannten weiblichen Mäusen durchgeführt, und zwar unter Verwendung der angeführten Zinksalze. Die bei diesen Tests erzielten Ergebnisse sind in der nachfolgenden Tabelle I zusammengestellt. Für jede der angewandten Bestrahlungsstärken ist in der Rubrik \"Anzahl\" diejenige Anzahl der Mäuse angeführt, welche die Bestrahlung überlebten, geteilt durch die Gesamtzahl der Mäuse, welche bestrahlt wurden. Ein entsprechender Wert von 1/10 bedeutet also, dass von 10 bestrahlten Mäusen eine überlebt hatte. In der Spalte mit der Bezeichnung \"Prozent\", ist die Prozent-Ueberlebensrate angeführt. Bei einer überlebenden Maus pro 10 getesteten Mäusen beträgt diese Ueberlebensrate 10 %.\nZu Vergleichszwecken sind in der nachfolgenden Tabelle III die Ueberlebensraten von Mäusen zusammengestellt, die nach dem in Beispiel 5 beschriebenen Verfahren einer Vorbehandlung mit einem bekannten schwefelhaltigen Strahlenschutzmittel unterworfen worden waren. Orientierende Vorversuche hatten gezeigt, dass diese Strahlenschutzmittel bereits ihre Wirkung verloren hatten, wenn sie zwei Stunden vor der Einwirkung der Bestrahlung verabreicht worden waren. Die Bestrahlung wurde, wie aus der Tabelle ersichtlich ist, zwei Minuten nach der Verabreichung, in den meisten Fällen 10 Minuten nach der Verabreichung, aber auch 30 Minuten, bzw. 120 Minuten nach der Verabreichung durchgeführt. Die Werte deuten darauf hin, dass 30 Minuten nach der Verabreichung die Schutzwirkung schon wieder deutlich nachgelassen hat. Für jede Bestrahlungsstärke ist wiederum die Anzahl der Tiere angeführt, die nach 30 Tagen überlebt haben, geteilt durch die Gesamtzahl der Tiere, die behandelt und bestrahlt worden waren.\nAnhand dieses Beispiels soll die synergistische Wirkung von Zinkionen und Schwefelverbindungen bezüglich eines Strahlenschutzes erläutert werden. Es wurde wieder in der gleichen Weise gearbeitet, wie in den vorangegangenen Beispielen 1 bis 3, bzw. 5, und es wurde auch die gleiche Art an weiblichen Mäusen getestet. Die Verabreichung der Zinkionen enthaltenden Lösung und der Lösung der Schwefelverbindung erfolgte entweder nacheinander oder gleichzeitig durch intraperitoneale Injektion.\nIn allen Fällen wurde die Ueberlebensrate 30 Tage nach der Einwirkung der Bestrahlung bestimmt.", "key": {"[1]": {"details": "comparison with the zinc compounds to be used according to the invention"}}, "note": "Structures can show the parent of a compound that is named as a salt."}
{"compound": "N=C(N)SCCN", "note": "[AET, S-(2-Aminoäthyl)-isothiouroniunibromid-hydrobromid, reference compound]", "values": [{"measurement": "Ueberlebensrate nach Bestrahlung mit 9 Gy", "setting": "30 mg/kg i.p.", "result": "1/10"}, {"measurement": "Strahlenschutzwirksamkeit", "setting": "125 mg/kg body weight, 10 min before irradiation", "result": "keine Strahlenschutzwirksamkeit"}, {"measurement": "Ueberlebensrate nach Bestrahlung mit 11 Gy", "setting": "125 mg/kg i.p., 10 min before 11 Gy", "result": "0/10"}, {"measurement": "Ueberlebensrate nach Bestrahlung mit 13 Gy", "setting": "125 mg/kg i.p., 10 min before 13 Gy", "result": "0/10"}, {"measurement": "überlebte eine Bestrahlung mit 11 Gy", "setting": "125 mg/kg, 10 min before 11 Gy", "result": "kein Tier"}, {"measurement": "überlebte eine Bestrahlung mit 13 Gy", "setting": "125 mg/kg, 10 min before 13 Gy", "result": "kein Tier"}, {"measurement": "Ueberlebensrate nach Bestrahlung mit 13 Gy", "setting": "250 mg/kg i.p., 2 min before 13 Gy", "result": "0/10"}, {"measurement": "Ueberlebensrate nach Bestrahlung mit 11 Gy", "setting": "250 mg/kg i.p., 10 min before 11 Gy", "result": "10/10^+"}, {"measurement": "Ueberlebensrate nach Bestrahlung mit 12 Gy", "setting": "250 mg/kg i.p., 10 min before 12 Gy", "result": "9/10^+"}, {"measurement": "Ueberlebensrate nach Bestrahlung mit 13 Gy", "setting": "250 mg/kg i.p., 10 min before 13 Gy", "result": "2/10^+"}, {"measurement": "Ueberlebensrate nach Bestrahlung mit 14 Gy", "setting": "250 mg/kg i.p., 10 min before 14 Gy", "result": "0/10"}, {"measurement": "Ueberlebensrate nach Bestrahlung mit 11 Gy", "setting": "250 mg/kg i.p., 30 min before 11 Gy", "result": "10/10"}, {"measurement": "Ueberlebensrate nach Bestrahlung mit 12 Gy", "setting": "250 mg/kg i.p., 30 min before 12 Gy", "result": "2/10"}, {"measurement": "Ueberlebensrate nach Bestrahlung mit 11 Gy", "setting": "250 mg/kg i.p., 120 min before 11 Gy", "result": "0/10"}, {"measurement": "überlebten eine Bestrahlung von 11 Gy", "setting": "250 mg/kg, 10 min before 11 Gy", "result": "sämtliche"}, {"measurement": "überlebten eine Bestrahlung von 12 Gy", "setting": "250 mg/kg, 10 min before 12 Gy", "result": 9, "unit": "von 10 getesteten Tieren"}, {"measurement": "überlebten eine Bestrahlung von 13 Gy", "setting": "250 mg/kg, 10 min before 13 Gy", "result": 2, "unit": "von 10 getesteten Tieren"}, {"measurement": "Bestrahlung von 14 Gy überlebt", "setting": "250 mg/kg, 10 min before 14 Gy, 10 animals tested", "result": "von keinem der 10 getesteten Tiere"}, {"measurement": "Ueberlebensrate in %", "setting": "11 Gy", "result": 100, "unit": "%"}, {"measurement": "Ueberlebensrate in %", "setting": "12 Gy", "result": 90, "unit": "%"}, {"measurement": "Ueberlebensrate in %", "setting": "13 Gy", "result": 20, "unit": "%"}, {"measurement": "Ueberlebensrate in %", "setting": "14 Gy", "result": 0, "unit": "%"}]}
{"compound": "NCCS", "note": "[Cysteamin, β-Merkaptoäthylamin, reference compound]", "values": [{"measurement": "Ueberlebensrate nach Bestrahlung mit 10 Gy", "setting": "75 mg/kg i.p.", "result": "0/10"}, {"measurement": "Strahlenschutzwirkung", "setting": "150 mg/kg body weight, 10 min before 11 Gy", "result": "keine Strahlenschutzwirkung"}, {"measurement": "Ueberlebensrate nach Bestrahlung mit 9 Gy", "setting": "150 mg/kg i.p.", "result": "10/10"}, {"measurement": "Ueberlebensrate nach Bestrahlung mit 10 Gy", "setting": "150 mg/kg i.p.", "result": "9/10"}, {"measurement": "Ueberlebensrate nach Bestrahlung mit 11 Gy", "setting": "150 mg/kg i.p., 10 min before 11 Gy", "result": "0/10"}, {"measurement": "Ueberlebensrate", "setting": "225 mg/kg alone, injected 10 min before 13 Gy", "result": 10, "unit": "%"}, {"measurement": "Ueberlebensrate nach Bestrahlung mit 14 Gy", "setting": "225 mg/kg i.p., 2 min before 14 Gy", "result": "0/10"}, {"measurement": "Ueberlebensrate nach Bestrahlung mit 10 Gy", "setting": "225 mg/kg i.p.", "result": "10/10^+"}, {"measurement": "Ueberlebensrate nach Bestrahlung mit 11 Gy", "setting": "225 mg/kg i.p., 10 min before 11 Gy", "result": "8/10^+"}, {"measurement": "Ueberlebensrate nach Bestrahlung mit 12 Gy", "setting": "225 mg/kg i.p., 10 min before 12 Gy", "result": "6/10^+"}, {"measurement": "Ueberlebensrate nach Bestrahlung mit 13 Gy", "setting": "225 mg/kg i.p., 10 min before 13 Gy", "result": "1/10^+"}, {"measurement": "Ueberlebensrate nach Bestrahlung mit 14 Gy", "setting": "225 mg/kg i.p., 10 min before 14 Gy", "result": "0/10"}, {"measurement": "Ueberlebensrate nach Bestrahlung mit 11 Gy", "setting": "225 mg/kg i.p., 30 min before 11 Gy", "result": "6/10"}, {"measurement": "Ueberlebensrate nach Bestrahlung mit 12 Gy", "setting": "225 mg/kg i.p., 30 min before 12 Gy", "result": "1/10"}, {"measurement": "Ueberlebensrate nach Bestrahlung mit 11 Gy", "setting": "225 mg/kg i.p., 120 min before 11 Gy", "result": "0/10"}, {"measurement": "überlebten eine Bestrahlung mit 11 Gy", "setting": "225 mg/kg, 10 min before 11 Gy, of 10 animals tested", "result": 8}, {"measurement": "überlebten eine Bestrahlung mit 12 Gy", "setting": "225 mg/kg, 10 min before 12 Gy, of 10 animals tested", "result": 6}, {"measurement": "überlebten eine Bestrahlung mit 13 Gy", "setting": "225 mg/kg, 10 min before 13 Gy, of 10 animals tested", "result": 1}, {"measurement": "überlebten eine Bestrahlung mit 14 Gy", "setting": "225 mg/kg, 10 min before 14 Gy, of 10 animals tested", "result": "keines"}, {"measurement": "überlebten eine Bestrahlung mit 11 Gy", "setting": "225 mg/kg, 30 min before 11 Gy, of 10 animals tested", "result": 6, "unit": "Tiere"}, {"measurement": "überlebten eine Bestrahlung mit 12 Gy", "setting": "225 mg/kg, 30 min before 12 Gy, of 10 animals tested", "result": 1, "unit": "Tier"}]}
{"compound": "N[C@@H](CS)C(=O)O", "note": "[Cystein, reference compound]", "values": [{"measurement": "Ueberlebensrate nach Bestrahlung mit 9 Gy", "setting": "300 mg/kg i.p.", "result": "0/10"}, {"measurement": "Ueberlebensrate nach Bestrahlung mit 9 Gy", "setting": "600 mg/kg i.p.", "result": "7/10"}, {"measurement": "Ueberlebensrate nach Bestrahlung mit 10 Gy", "setting": "600 mg/kg i.p.", "result": "3/10"}, {"measurement": "überlebten eine Bestrahlung mit 10 Gy", "setting": "600 mg/kg", "result": 3, "unit": "von 10 Mäusen"}, {"measurement": "Ueberlebensrate nach Bestrahlung mit 9 Gy", "setting": "900 mg/kg i.p.", "result": "10/10^+"}, {"measurement": "Ueberlebensrate nach Bestrahlung mit 10 Gy", "setting": "900 mg/kg i.p.", "result": "4/10"}, {"measurement": "Ueberlebensrate nach Bestrahlung mit 11 Gy", "setting": "900 mg/kg i.p., 10 min before 11 Gy", "result": "0/10"}, {"measurement": "überlebten eine Bestrahlung mit 10 Gy", "setting": "900 mg/kg", "result": 4, "unit": "von 10 Mäusen"}, {"measurement": "Ueberlebensrate nach Bestrahlung mit 10 Gy", "setting": "1200 mg/kg i.p.", "result": "9/10^+"}, {"measurement": "Ueberlebensrate nach Bestrahlung mit 11 Gy", "setting": "1200 mg/kg i.p., 10 min before 11 Gy", "result": "2/10^+"}, {"measurement": "Ueberlebensrate nach Bestrahlung mit 12 Gy", "setting": "1200 mg/kg i.p., 10 min before 12 Gy", "result": "1/10^+"}, {"measurement": "Ueberlebensrate nach Bestrahlung mit 11 Gy", "setting": "1200 mg/kg i.p., 30 min before 11 Gy", "result": "0/10"}, {"measurement": "überlebten eine Bestrahlung mit 10 Gy", "setting": "1200 mg/kg", "result": 9, "unit": "von 10 Mäusen"}, {"measurement": "überlebten (11 Gy)", "setting": "1200 mg/kg, 10 min before 11 Gy", "result": "zwei"}, {"measurement": "Bestrahlung mit 11 Gy überlebt", "setting": "600, 900 and 1200 mg/kg, 10 min before 11 Gy", "result": "praktisch keinem der Tiere"}, {"measurement": "Strahlenschutzwirkung", "setting": "[1]", "result": "deutlich weniger wirksam"}]}
{"compound": "N[C@@H](CCC(=O)N[C@@H](CS)C(=O)NCC(=O)O)C(=O)O", "note": "[L-Glutathion, reference compound]", "values": [{"measurement": "überlebten eine Bestrahlung mit 9 Gy", "setting": "100 mg/kg body weight (lower dose)", "result": 3, "unit": "von 10 Tieren"}, {"measurement": "Ueberlebensrate nach Bestrahlung mit 9 Gy", "setting": "1000 mg/kg i.p.", "result": "3/10"}, {"measurement": "überlebten eine Bestrahlung mit 9 Gy", "setting": "2000 mg/kg body weight (higher dose)", "result": 2, "unit": "von 10 Tieren"}, {"measurement": "Ueberlebensrate nach Bestrahlung mit 9 Gy", "setting": "2000 mg/kg i.p.", "result": "2/10"}, {"measurement": "Strahlenschutzwirkung", "setting": "[1]", "result": "deutlich weniger wirksam"}]}
{"compound": "N[C@@H](CC(=O)O)C(=O)[O-].[Na+]", "note": "[Natriumaspartat, reference compound]", "values": [{"measurement": "Strahlenschutzwirkung", "setting": "20 to 350 mg/kg body weight injected 10 min before 9 Gy, lethal dose already reached", "result": "wirkungslos"}]}
{"compound": "COc1ccc(CCCCNCCSS(=O)(=O)O)cc1", "note": "[reference compound]", "values": [{"measurement": "Synergismus mit Zinkionen (Strahlenschutz)", "setting": "in combination with zinc ions and zinc complexes, procedure of Example 6", "result": "die besten Ergebnisse"}]}
{"compound": "Kupferaspartat [reference compound]", "values": [{"measurement": "Strahlenschutzwirkung", "setting": "10 to 30 mg/kg body weight injected 10 min before 9 Gy, lethal dose already reached", "result": "wirkungslos"}]}
